# Measurements reported in article PMC9898226, “Emergence of a proton exchange-based isomerization and lactonization mechanism in the plant coumarin synthase COSY” (Nature Communications, 2023).
# Columns and labels:
# Assay type in all cases: biochemical
# AtCOSY [1] = biological target: T1, AtCOSY (Arabidopsis thaliana, UniProt Q8LF28); assay: coupled At4CL1 assay, LC-MS of umbelliferone; details: substrate made in situ by At4CL1 from 2-hydroxy-p-coumaric acid (CAS 614-86-8), ATP, CoA, Mg2+; 20 mM HEPES
# T1 construct: gene COSY; N-terminal 8xHis tag with TEV site (pHis8-4), tag cleaved; E. coli BL21(DE3); domains 1-181, 182-229, 230-451
# T1 sequence (Q8LF28 1-451): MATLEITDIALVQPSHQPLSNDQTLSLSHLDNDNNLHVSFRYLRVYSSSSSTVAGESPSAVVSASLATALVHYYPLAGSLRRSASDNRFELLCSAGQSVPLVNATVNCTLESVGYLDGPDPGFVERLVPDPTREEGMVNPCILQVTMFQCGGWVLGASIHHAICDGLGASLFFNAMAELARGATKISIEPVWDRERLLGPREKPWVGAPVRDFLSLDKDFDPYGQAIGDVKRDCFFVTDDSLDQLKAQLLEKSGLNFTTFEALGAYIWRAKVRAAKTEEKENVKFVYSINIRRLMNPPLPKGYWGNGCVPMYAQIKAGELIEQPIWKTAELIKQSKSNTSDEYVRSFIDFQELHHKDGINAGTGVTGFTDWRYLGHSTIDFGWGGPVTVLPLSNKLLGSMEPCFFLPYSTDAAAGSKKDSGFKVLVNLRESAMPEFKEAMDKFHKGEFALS
# SbCOSY = biological target: T2, SbCOSY (Sorghum bicolor, UniProt C5Z4D6); assay: coupled At4CL1 assay, LC-MS of scopoletin; details: substrate made in situ by At4CL1 from 6-hydroxyferulic acid, ATP, CoA, Mg2+; 20 mM HEPES; spontaneous background
# T2 construct: gene SORBI_3010G043700
# T2 sequence (C5Z4D6 1-456): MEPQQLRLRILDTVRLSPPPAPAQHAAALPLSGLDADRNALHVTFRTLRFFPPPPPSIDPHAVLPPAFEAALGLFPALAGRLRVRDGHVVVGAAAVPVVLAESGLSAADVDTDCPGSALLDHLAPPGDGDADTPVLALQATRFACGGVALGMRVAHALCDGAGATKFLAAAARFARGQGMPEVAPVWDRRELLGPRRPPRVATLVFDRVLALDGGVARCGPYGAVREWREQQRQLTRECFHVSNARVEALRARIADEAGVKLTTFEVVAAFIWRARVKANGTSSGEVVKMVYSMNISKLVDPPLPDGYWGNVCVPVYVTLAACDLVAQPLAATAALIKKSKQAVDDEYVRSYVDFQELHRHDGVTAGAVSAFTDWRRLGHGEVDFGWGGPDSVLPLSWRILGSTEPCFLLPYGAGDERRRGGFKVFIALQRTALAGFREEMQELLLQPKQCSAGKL
# AtCOSY [2] = biological target: T1, AtCOSY; assay: coupled At4CL1 assay, LC-MS of scopoletin; details: substrate made in situ by At4CL1 from 6-hydroxyferulic acid, ATP, CoA, Mg2+; 20 mM HEPES; spontaneous background
# GmCOSY = biological target: T3, GmCOSY (Glycine max, UniProt A0A0R0H5A1); assay: coupled At4CL1 assay, LC-MS of scopoletin; details: substrate made in situ by At4CL1 from 6-hydroxyferulic acid, ATP, CoA, Mg2+; 20 mM HEPES; spontaneous background
# T3 construct: gene LOC100817021
# T3 sequence (A0A0R0H5A1 1-452): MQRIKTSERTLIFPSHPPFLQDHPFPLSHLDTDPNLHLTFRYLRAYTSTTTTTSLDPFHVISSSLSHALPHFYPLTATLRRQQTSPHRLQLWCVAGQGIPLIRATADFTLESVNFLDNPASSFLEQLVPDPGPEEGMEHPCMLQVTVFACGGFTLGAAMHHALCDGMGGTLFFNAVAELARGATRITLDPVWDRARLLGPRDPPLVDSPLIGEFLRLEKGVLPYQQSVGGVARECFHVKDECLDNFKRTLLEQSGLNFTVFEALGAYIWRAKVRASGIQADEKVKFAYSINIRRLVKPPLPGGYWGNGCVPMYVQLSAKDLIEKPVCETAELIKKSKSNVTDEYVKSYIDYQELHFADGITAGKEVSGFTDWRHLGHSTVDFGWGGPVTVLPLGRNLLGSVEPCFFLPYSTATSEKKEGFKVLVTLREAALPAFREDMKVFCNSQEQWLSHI
# StCOSY = biological target: T4, StCOSY (Solanum tuberosum, UniProt M0ZYT4); assay: coupled At4CL1 assay, LC-MS of scopoletin; details: substrate made in situ by At4CL1 from 6-hydroxyferulic acid, ATP, CoA, Mg2+; 20 mM HEPES; spontaneous background
# T4 sequence (M0ZYT4 1-444): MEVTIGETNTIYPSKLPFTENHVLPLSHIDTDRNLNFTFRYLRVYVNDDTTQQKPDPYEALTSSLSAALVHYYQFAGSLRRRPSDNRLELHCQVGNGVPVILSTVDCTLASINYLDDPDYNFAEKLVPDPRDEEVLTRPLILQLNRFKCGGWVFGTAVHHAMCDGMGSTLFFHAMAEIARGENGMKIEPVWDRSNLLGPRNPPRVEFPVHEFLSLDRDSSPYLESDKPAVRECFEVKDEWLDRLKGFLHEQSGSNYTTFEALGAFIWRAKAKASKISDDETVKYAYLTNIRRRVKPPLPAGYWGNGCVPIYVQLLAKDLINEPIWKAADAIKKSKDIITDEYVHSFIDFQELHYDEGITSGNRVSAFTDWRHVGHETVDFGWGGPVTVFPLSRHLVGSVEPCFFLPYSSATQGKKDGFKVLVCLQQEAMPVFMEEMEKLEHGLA
SMILES,"coupled At4CL1 assay, LC-MS of umbelliferone (AtCOSY [1])","coupled At4CL1 assay, LC-MS of scopoletin (SbCOSY)","coupled At4CL1 assay, LC-MS of scopoletin (AtCOSY [2])","coupled At4CL1 assay, LC-MS of scopoletin (GmCOSY)","coupled At4CL1 assay, LC-MS of scopoletin (StCOSY)"
CC(C)(COP(=O)(O)OP(=O)(O)OC[C@H]1O[C@@H](n2cnc3c(N)ncnc32)[C@H](O)[C@@H]1OP(=O)(O)O)[C@@H](O)C(=O)NCCC(=O)NCCSC(=O)/C=C/c1ccc(O)cc1O [2-hydroxy-p-coumaroyl CoA],addition of AtCOSY resulted in significant acceleration of coumarin production,,,,
COc1cc(/C=C/C(=O)SCCNC(=O)CCNC(=O)[C@H](O)C(C)(C)COP(=O)(O)OP(=O)(O)OC[C@H]2O[C@@H](n3cnc4c(N)ncnc43)[C@H](O)[C@@H]2OP(=O)(O)O)c(O)cc1O [6-hydroxyferuloyl-CoA],,"GmCOSY, StCOSY and SbCOSY contain coumarin synthase activity comparable to that of AtCOSY",addition of AtCOSY resulted in significant acceleration of coumarin production,"GmCOSY, StCOSY and SbCOSY contain coumarin synthase activity comparable to that of AtCOSY","GmCOSY, StCOSY and SbCOSY contain coumarin synthase activity comparable to that of AtCOSY"
